Each molecule was assayed against PHF (paired helical filaments) isolated from the brain of an Alzheimer's disease patient (Homo sapiens, UniProt P10636) (assay: Competitive binding assay: displacement of primulin fluorescence from PHFs). Conditions: compound fluorescent, no P50 obtainable.
Parameters: key to P50: fl indicates that the compound is fluorescent. Consequently, binding levels for the compound in the competition binding assay cannot be determined by fluorescent spectroscopy
Experimental: The DSB compounds were tested for their ability to bind to PHF in a competition-style assay.
If a test compound that also binds to PHFs with the same or greater affinity is added, it will displace the reference ligand and reduce the fluorescence signal. In the present assay, the reference compound is primulin, which was added at 1 μM. Test compounds were added at concentrations from 0.05 to 1 μM. The P50 for a test compound is defined as the concentration of compound that reduces the primulin signal to 50% of the control value. This value is, therefore, not an absolute affinity, but a relative affinity compared to the affinity of primulin.
PHFs were isolated from the brain of an Alzheimer's disease patient essentially as described by Wischik et al. (Neurobiology of Aging, Vol. 16, pp. 409-431, 1995). The IFII fraction was isolated by centrifugation on a sucrose gradient as described in the PhD thesis of C. M. Wischik, and was further extracted into an ‘abc sup’ as described by C. M. Wischik (Thesis “The structure and biochemistry of paired helical filaments in Alzheimer's disease” Part I and II; Cambridge University, 1989).
The assay for ligand activity was performed in 96 well plates (Nunc Cat. No. 236108). The test compound at the required concentration was mixed with PHFs, then primulin was added to give a final concentration of 1 μM and a total volume of 100 μl. The concentration of PHFs added was determined for each preparation to give an adequate fluorescence signal, and was typically in the range 1-2 μl/100 μl. The test compounds were typically dissolved in DMSO to give a final concentration of 10% DMSO in the assay. The control fluorescence, in the absence of PHFs, was also measured in the presence of 10% DMSO.
The fluorescence was measured in a Varian Carey Eclipse Fluorescence Spectrophotometer, with the […] wavelength at 480 nm. Excitation spectra were recorded and corrected by subtraction of the signal measured in the absence of PHFs, using the Varian software. The fluorescence signal at the peak […] wavelength of 420 nm was measured from the corrected spectra. The fluorescence values were plotted as a function of concentration of test compound, and the value for P50 measured from the graph.

Chain of PHF (paired helical filaments) isolated from the brain of an Alzheimer's disease patient (P10636 623-708 limits assumed): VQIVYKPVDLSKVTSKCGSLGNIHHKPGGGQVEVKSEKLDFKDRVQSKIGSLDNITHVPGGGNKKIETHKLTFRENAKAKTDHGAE

**Q.** For COc1ccc2nc(-c3ccc(/C=C/c4ccc(NC(=O)C(F)(F)F)cc4)cc3)sc2c1 [BEFA-06], which P50 is on record?
**A.** fl

**Q.** Which P50 does the source give for Oc1ccc2nc(-c3ccc(/C=C/c4cc(OC(F)(F)F)ccc4O)cc3)sc2c1 [BEHF-06] here?
**A.** fl

**Q.** Which P50 does the source give for Oc1ccc2nc(-c3ccc(/C=C/c4ccc(NCC(F)(F)F)cc4)cc3)sc2c1 [BEHF-02] here?
**A.** fl

Same assay, conditions: concentration that reduces the signal of 1 μM primulin to 50% of control; relative affinity

**Q.** How did the P50 turn out when COc1ccc2nc(-c3ccc(/C=C/c4ccc(OCCF)cc4)cc3)sc2c1 [BEFA-12] was run?
**A.** no effect

**Q.** Which P50 does the source give for COc1ccc2nc(-c3ccc(NC(=O)c4ccc(OCCCC(F)(F)F)cc4)cc3)sc2c1 [ABFMA-13] here?
**A.** no effect

**Q.** Cc1ccc2nc(-c3ccc(NC(=O)c4cccnc4)cc3)cn2c1 [AIPN-04] was tested. Which P50 did it give?
**A.** no effect

**Q.** How did the P50 turn out when COc1ccc(C(=O)Nc2ccc(-c3nc4ccc(OC)cc4s3)cc2OC)c(C(F)(F)F)c1 [ABFMA-10] was run?
**A.** no effect

**Q.** Which P50 does the source give for Oc1ccc(/N=N/c2ccc(-c3nc4cc(OC(F)(F)F)ccc4s3)cc2)cc1 [BDF-09] here?
**A.** no effect

**Q.** How did the P50 turn out when COc1ccc2nc(-c3ccc(/C=C/c4cccc(C(F)(F)F)c4)cc3)sc2c1 [BEFA-02] was run?
**A.** no effect

**Q.** For COc1ccc2nc(-c3ccc(NC(=O)c4ccc(N(C)C)cc4C(F)(F)F)cc3)sc2c1 [ABFMA-18], which P50 is on record?
**A.** no effect

**Q.** COc1ccc2nc(-c3ccc(NC(=O)c4ccc(OCCF)cc4)cc3)sc2c1 [ABMFMA-06] was tested. Which P50 did it give?
**A.** no effect

**Q.** How did the P50 turn out when Cc1ccc2nc(-c3ccc(/C=C/c4ccccc4)cc3)sc2c1 [BEMA-01] was run?
**A.** no effect

**Q.** How did the P50 turn out when CN(C)c1ccc(C(=O)Nc2ccc(-c3cn4cccnc4n3)cc2)cc1 [AIPM-01] was run?
**A.** no effect

**Q.** How did the P50 turn out when Cc1ccc2nc(-c3ccc(/C=C/c4ccc(O)cc4)cc3)sc2c1 [BEMA-11] was run?
**A.** no effect

**Q.** With O=C(Nc1ccc(-c2nc3ccc(O)cc3s2)cc1)c1ccc(OCCC(F)(F)F)cc1 [ABFHA-04] as the molecule, how does the P50 read?
**A.** no effect

**Q.** With Cc1ccc2nc(-c3ccc(/C=C/c4ccccc4N)cc3)sc2c1 [BEMA-05] as the molecule, how does the P50 read?
**A.** no effect

**Q.** Cc1ccc2nc(-c3ccc(/C=C/c4ccccc4O)cc3)sc2c1 [BEMA-09] was tested. Which P50 did it give?
**A.** no effect

**Q.** For Cc1ccc2nc(-c3ccc(NC(=O)c4ccccc4N(C)C)cc3)sc2c1 [ABAA-07], which P50 is on record?
**A.** no effect

**Q.** Which P50 does the source give for CNc1cccc(C(=O)Nc2ccc(-c3nc4ccc(C)cc4s3)cc2)c1 [ABAA-12] here?
**A.** no effect

**Q.** Which P50 does the source give for Cc1ccc2nc(-c3ccc(NC(=O)c4ccccc4N)cc3)sc2c1 [ABAA-04] here?
**A.** no effect

Same assay, conditions: concentration that reduces the signal of 1 μM primulin to 50% of control; relative affinity; read-out: P50

**Q.** Which IC50 does the source give for O=C(Nc1ccc(-c2nc3ccc(O)cc3s2)c(C(F)(F)F)c1)c1ccc(O)cc1 [ABFHA-10] here?
**A.** > 1000 nM

**Q.** For COc1ccc2nc(-c3ccc(NC(=O)c4ccc(O)c([N+](=O)[O-])c4)cc3)sc2c1 [ABMA-13], which IC50 is on record?
**A.** 310 nM

**Q.** For COc1ccc2nc(-c3ccc(/C=C/c4ccc(O)c([N+](=O)[O-])c4)cc3)sc2c1 [BEMOA-09], which IC50 is on record?
**A.** 30 nM

**Q.** With CN(C)CCOc1ccc2nc(-c3ccc(NC(=O)c4ccc([N+](=O)[O-])c(C(F)(F)F)c4)cc3)sc2c1 [ABDMAA-01] as the molecule, how does the IC50 read?
**A.** 980 nM

**Q.** Which IC50 does the source give for COc1ccc(C(=O)Nc2ccc(-c3cn4cc(C)ccc4n3)cc2)cc1F [AIPN-23] here?
**A.** 950 nM

**Q.** With Cc1ccc2nc(-c3ccc(NC(=O)c4ccc(N)cc4)cc3)cn2c1 [AIPN-11] as the molecule, how does the IC50 read?
**A.** 660 nM

**Q.** How did the IC50 turn out when Cc1ccc2nc(-c3ccc(NC(=O)c4ccc(N(C)C)cc4)cc3)cn2c1 [AIPN-02] was run?
**A.** 310 nM

**Q.** How did the IC50 turn out when COc1ccc2nc(-c3ccc(/C=C/c4ccc([N+](=O)[O-])cc4)cc3)sc2c1 [BEMOA-03] was run?
**A.** 40 nM

**Q.** With COc1cccc2sc(-c3ccc(/N=N/c4ccc(C(F)(F)F)cc4O)cc3)nc12 [BDF-12] as the molecule, how does the IC50 read?
**A.** 700 nM

**Q.** O=C(Nc1ccc(-c2nc3ccc(O)cc3s2)cc1)c1ccc(F)c([N+](=O)[O-])c1 [ABFHA-11] was tested. Which IC50 did it give?
**A.** 310 nM

**Q.** For Cc1ccc2nc(-c3ccc(NC(=O)c4ccc(O)cc4F)cc3)cn2c1 [AIPN-29], which IC50 is on record?
**A.** 700 nM

**Q.** Which IC50 does the source give for COc1ccc2nc(-c3ccc(NC(=O)c4ccccc4N(C)C)cc3)sc2c1 [ABMA-07] here?
**A.** 1350 nM

**Q.** With Cc1ccc2nc(-c3ccc(NC(=O)c4cccc(F)n4)cc3)cn2c1 [AIPN-07] as the molecule, how does the IC50 read?
**A.** > 1000 nM

**Q.** For Cc1ccc2nc(-c3ccc(NC(=O)c4ccc(NO)c(C(F)(F)F)c4)cc3)cn2c1 [AIPN-10], which IC50 is on record?
**A.** 180 nM

**Q.** Which IC50 does the source give for COc1ccc2nc(-c3ccc(NC(=O)c4ccc(O)cc4)cc3)sc2c1 [ABMA-11] here?
**A.** 430 nM

**Q.** Cc1ccc2nc(-c3ccc(/C=C/c4cccc(O)c4)cc3)sc2c1 [BEMA-10] was tested. Which IC50 did it give?
**A.** ~1200 nM

**Q.** With CNc1c(F)cc(C(=O)Nc2ccc(-c3cn4cc(C)ccc4n3)cc2)cc1F [AIPN-21] as the molecule, how does the IC50 read?
**A.** 460 nM

**Q.** With Cc1ccc2nc(-c3ccc(NC(=O)c4ccc(O)c(F)c4)cc3)cn2c1 [AIPN-27] as the molecule, how does the IC50 read?
**A.** > 1000 nM

**Q.** Cc1ccc2nc(-c3ccc(NC(=O)c4ccc(O)cc4)cc3)cn2c1 [AIPN-14] was tested. Which IC50 did it give?
**A.** 500 nM

**Q.** CN(C)c1ccc2nc(-c3ccc(/N=N/c4ccc(O)cc4C(F)(F)F)cc3)sc2c1 [BDF-06] was tested. Which IC50 did it give?
**A.** 40 nM

**Q.** With COc1c(F)cc(C(=O)Nc2ccc(-c3cn4cc(C)ccc4n3)cc2)cc1F [AIPN-24] as the molecule, how does the IC50 read?
**A.** ~1000 nM

**Q.** Which IC50 does the source give for Nc1cccc(C(=O)Nc2ccc(-c3nc4ccc(O)cc4s3)cc2)c1 [ABHA-02] here?
**A.** 560 nM

**Q.** COc1ccc2nc(-c3ccc(NC(=O)c4ccc(F)c([N+](=O)[O-])c4)cc3)sc2c1 [ABMFMA-05] was tested. Which IC50 did it give?
**A.** 200 nM

**Q.** Which IC50 does the source give for Cc1ccc2nc(-c3ccc(NC(=O)c4ccc(Cl)nc4)cc3)cn2c1 [AIPN-18] here?
**A.** > 1000 nM

**Q.** Which IC50 does the source give for Cc1ccc2nc(-c3ccc(/C=C/c4ccc([N+](=O)[O-])cc4)cc3)cn2c1 [IEPN-01] here?
**A.** 50 nM

**Q.** How did the IC50 turn out when Nc1ccccc1C(=O)Nc1ccc(-c2nc3ccc(O)cc3s2)cc1 [ABHA-01] was run?
**A.** 900 nM

**Q.** COc1ccc2nc(-c3ccc(NC(=O)c4ccc(F)nc4)cc3)sc2c1 [ABMFMA-02] was tested. Which IC50 did it give?
**A.** 890 nM

**Q.** Cc1ccc2nc(-c3ccc(NC(=O)c4ccccc4)cc3)sc2c1 [ABAA-10] was tested. Which IC50 did it give?
**A.** ~1200 nM

**Q.** How did the IC50 turn out when O=C(Nc1ccc(-c2nc3ccc(O)cc3s2)cc1)c1ccc([N+](=O)[O-])c(C(F)(F)F)c1 [ABFHA-01] was run?
**A.** 190 nM

**Q.** Cc1ccc2nc(-c3ccc(/N=N/c4ccc(O)cc4C(F)(F)F)cc3)sc2c1 [BDF-01] was tested. Which IC50 did it give?
**A.** 290 nM

**Q.** For COc1ccc2sc(-c3ccc(/N=N/c4ccc(O)cc4C(F)(F)F)cc3)nc2c1 [BDF-11], which IC50 is on record?
**A.** 600 nM

**Q.** With CN(C)CCOc1cc(NC(=O)c2ccc([N+](=O)[O-])c(C(F)(F)F)c2)ccc1-c1nc2ccccc2s1 [AUB-03] as the molecule, how does the IC50 read?
**A.** > 1000 nM

**Q.** With COc1ccc2nc(-c3ccc(NC(=O)c4ccc(N)c(C(F)(F)F)c4)cc3)sc2c1 [ABFMA-15] as the molecule, how does the IC50 read?
**A.** 430 nM

**Q.** COc1ccc2nc(-c3ccc(/C=C/c4cccc(N)c4)cc3)sc2c1 [BEMOA-05] was tested. Which IC50 did it give?
**A.** 280 nM

**Q.** Which IC50 does the source give for Cc1ccc2nc(-c3ccc(NC(=O)c4cc(F)c(O)c(F)c4)cc3)cn2c1 [AIPN-26] here?
**A.** > 1000 nM

**Q.** Which IC50 does the source give for Cc1ccc2nc(-c3ccc(NC(=O)c4cccc(O)c4)cc3)sc2c1 [ABAA-11] here?
**A.** ~1200 nM

**Q.** How did the IC50 turn out when COc1ccc2nc(-c3ccc(NC(=O)c4ccc(N(C)C)cc4)cc3)sc2c1 [ABMA-09] was run?
**A.** 170 nM

**Q.** O=C(Nc1ccc(-c2nc3ccc(O)cc3s2)cc1)c1ccc(OCCCC(F)(F)F)cc1 [ABFHA-05] was tested. Which IC50 did it give?
**A.** 400 nM

**Q.** Which IC50 does the source give for Oc1ccc(/N=N/c2ccc(-c3nc4cc(O)ccc4s3)cc2)c(C(F)(F)F)c1 [BDF-05] here?
**A.** 90 nM

**Q.** Which IC50 does the source give for COc1ccc2nc(-c3ccc(NC(=O)c4ccc(N)cc4)cc3)sc2c1 [ABMA-06] here?
**A.** 370 nM

**Q.** For Nc1ccc(C(=O)Nc2ccc(-c3nc4ccc(O)cc4s3)cc2)cc1 [ABHA-03], which IC50 is on record?
**A.** 450 nM

**Q.** How did the IC50 turn out when O=C(Nc1ccc(-c2nc3ccc(O)cc3s2)cc1)c1ccc(O)cc1C(F)(F)F [ABFHA-08] was run?
**A.** > 1000 nM

**Q.** Which IC50 does the source give for O=C(Nc1ccc(-c2nc3ccc(O)cc3s2)cc1)c1cc(OC(F)(F)F)ccc1O [ABFHA-09] here?
**A.** > 1000 nM

**Q.** Which IC50 does the source give for COc1ccc2nc(-c3ccc(NC(=O)c4ccc([N+](=O)[O-])c(C(F)(F)F)c4)cc3)sc2c1 [ABFMA-12] here?
**A.** 170 nM

Source: patent publication US8895313B2, “Ligands for aggregated tau molecules” (Wista Laboratories Ltd., priority 2008, dated 2014)
